Structures are written as SMILES.

Assay [1] has as its system icilin induced wet-dog shakes. Description: Inhibition of icilin induced shaking (wet-dog shakes) in rats. It counts as in vivo, male Sprague Dawley rats. The conditions noted are these: po, rat. The procedure: Inhibition of Icilin Induced Shaking in Rats
Example compounds at doses ranging from 0.01 to 3 mg/kg (p.o, suspended in 5% Tween80/Oralplus or suspended in 2% HPMC-1% Tween-80 pH2.2 with MSA, 5 mL/kg) can be administered to male Sprague Dawley rats (200-300 g, Harlan, n=6-8/treatment) 2 h before icilin to assess the ability to block the spontaneous wet-dog shake phenomena induced by icilin (i.p., suspended in 100% PEG400 at 0.5 mg/kg, 1 mL/kg or p.o., suspended in 2% HPMC-1% Tween-80 at 3 mg/kg, 2.5 mL/kg). Spontaneous wet-dog shakes may be counted manually by two blinded observers or using LABORAS automation (Metris) for 30 min post-icilin. The synthesized and prophetic example compounds may be measured using these procedures and will be found to reduce the spontaneous wet dog shake phenomena induced by icilin.

Assay [2] has as its target T1, human TRPM8 (Homo sapiens, UniProt Q7Z2W7).
T1 construct: expressed in transfected cells; host or cells: Chinese hamster ovary (CHO) cells, T-REx tetracycline-inducible expression system (Invitrogen); co-transfected with pcDNA3.1 aequorin
The assay is described as follows: Luminescence readout assay for measuring intracellular calcium (aequorin, CHO cells expressing human TRPM8; icilin, L-menthol or cold activation). It counts as cell-based. The conditions noted are these: CHO cells expressing human TRPM8, icilin activation (1 μM), aequorin luminescence; read-out: hTRPM8 IC50. In short, it runs like this:
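Activation was by 1 μM icilin, 100 μM L-menthol (test compound 2.5 min ahead) or cold buffer below 10° C (compound 1 min ahead). Calcium rise measured as aequorin luminescence in CHO cells with tetracycline-inducible human TRPM8.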
In general terms: Calcium flux is commonly read through the fluorescence of an indicator in the cells.

T1 sequence (Q7Z2W7 whole entry): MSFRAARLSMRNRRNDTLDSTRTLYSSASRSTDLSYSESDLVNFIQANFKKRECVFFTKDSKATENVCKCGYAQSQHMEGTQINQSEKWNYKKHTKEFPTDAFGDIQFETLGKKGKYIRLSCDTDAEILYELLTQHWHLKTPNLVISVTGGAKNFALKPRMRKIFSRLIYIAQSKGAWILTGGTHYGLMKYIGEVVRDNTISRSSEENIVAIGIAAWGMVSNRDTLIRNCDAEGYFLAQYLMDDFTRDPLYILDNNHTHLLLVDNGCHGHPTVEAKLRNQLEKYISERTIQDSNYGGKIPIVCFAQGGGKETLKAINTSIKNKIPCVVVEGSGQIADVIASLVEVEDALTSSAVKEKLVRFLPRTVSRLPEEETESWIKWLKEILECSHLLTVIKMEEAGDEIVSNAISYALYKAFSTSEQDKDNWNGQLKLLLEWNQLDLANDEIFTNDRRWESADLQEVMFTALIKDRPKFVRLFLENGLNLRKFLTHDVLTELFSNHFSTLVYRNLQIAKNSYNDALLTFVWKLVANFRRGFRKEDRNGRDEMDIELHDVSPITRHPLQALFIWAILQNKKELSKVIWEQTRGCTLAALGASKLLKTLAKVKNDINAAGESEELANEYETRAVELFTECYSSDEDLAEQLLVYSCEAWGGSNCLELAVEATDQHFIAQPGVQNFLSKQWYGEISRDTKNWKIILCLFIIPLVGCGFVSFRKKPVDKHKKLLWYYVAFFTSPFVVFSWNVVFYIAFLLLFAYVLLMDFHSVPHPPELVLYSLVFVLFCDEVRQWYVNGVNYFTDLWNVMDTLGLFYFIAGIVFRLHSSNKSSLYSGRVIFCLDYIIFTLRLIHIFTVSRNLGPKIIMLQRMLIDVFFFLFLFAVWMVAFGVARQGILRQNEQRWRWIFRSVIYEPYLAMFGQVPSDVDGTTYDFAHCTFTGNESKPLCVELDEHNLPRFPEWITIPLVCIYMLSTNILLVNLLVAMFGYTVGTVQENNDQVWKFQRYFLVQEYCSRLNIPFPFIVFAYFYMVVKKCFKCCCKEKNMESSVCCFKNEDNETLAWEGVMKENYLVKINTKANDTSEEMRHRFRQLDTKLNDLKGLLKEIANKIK

`CCc1cc(C(=O)N[C@]2(c3ccc(OC(F)(F)F)c(F)c3)CCOc3cccnc32)ccc1C(=O)O` [Example 291, (S)-2-ethyl-4-((4-(3-fluoro-4-(trifluoromethoxy)phenyl)-3,4-dihydro-2H-pyrano[3,2-b]pyridin-4-yl)carbamoyl)benzoic acid] yielded an inhibition in vivo at 1 mg/kg in assay [1] of 97%. Moreover, in assay [2], the IC50 stood at 15 nM.
`Cc1nc(C(=O)N[C@]2(c3ccc(OC(F)(F)F)c(F)c3)CCOc3cccnc32)ccc1C(=O)O` [Example 310, (S)-6-((4-(3-fluoro-4-(trifluoro-methoxy)phenyl)-3,4-dihydro-2H-pyrano[3,2-b]pyridin-4-yl)carbamoyl)-2-methylnicotinic acid] gave an inhibition in vivo at 1 mg/kg in assay [1] of 98%. Further, the IC50 in assay [2] turned out to be 8 nM.
For `O=C(O)c1ccc(C(=O)N[C@]2(c3ccc(C(F)(F)F)c(F)c3)CCOc3cccnc32)nc1` [Example 313, (S)-6-((4-(3-fluoro-4-(trifluoro-methyl)phenyl)-3,4-dihydro-2H-pyrano[3,2-b]pyridin-4-yl)carbamoyl) nicotinic acid] the same measures were 99% and 14 nM.
Taken in the same sequence, the figures for `COc1cc(C(=O)O)ccc1C(=O)N[C@]1(c2ccc(OC(F)(F)F)c(F)c2)CCOc2cccnc21` [Example 314, (S)-4-((4-(3-fluoro-4-(trifluoromethoxy)phenyl)-3,4-dihydro-2H-pyrano[3,2-b]pyridin-4-yl)carbamoyl)-3-methoxybenzoic acid] were 99% and 4 nM.
`O=C(O)c1ccc(C(=O)N[C@]2(c3ccc(Cl)c(Cl)c3)CCOc3cccnc32)nc1` [Example 318, (S)-6-((4-(3,4-dichloro-phenyl)-3,4-dihydro-2H-pyrano[3,2-b]pyridin-4-yl)carbamoyl) nicotinic acid] registered an inhibition in vivo at 1 mg/kg in assay [1] of 86%. Moreover, the IC50 in assay [2] worked out at 25 nM.
In assay [1] (dose 0.3 mg/kg), `Cc1cc(C(=O)N[C@]2(c3ccc(OC(F)(F)F)cc3)CCOc3cccnc32)ccc1C(=O)O` [Example 319, (S)-2-methyl-4-((4-(4-(trifluoro-methoxy)phenyl)-3,4-dihydro-2H-pyrano[3,2-b]pyridin-4-yl)carbamoyl) benzoic acid] showed an inhibition in vivo at 0.3 mg/kg of 75%. The IC50 in assay [2] was 15 nM.
Take `Nc1cc(C(=O)N[C@]2(c3ccc(OC(F)(F)F)c(F)c3)CCOc3cccnc32)ccc1C(=O)O` [Example 321, (S)-2-amino-4-((4-(3-fluoro-4-(trifluoro-methoxy)phenyl)-3,4-dihydro-2H-pyrano[3,2-b]pyridin-4-yl)carbamoyl) benzoic acid]: at 1 mg/kg the inhibition in vivo in assay [1] was 95%. The concentration for half-maximal inhibition (IC50) in assay [2] is 12 nM.
For `O=C(O)c1ccc(C(=O)N[C@]2(c3ccc(C(F)(F)F)cc3)CCOc3cccnc32)nc1` [Example 326, (S)-6-((4-(4-(trifluoro-methyl)phenyl)-3,4-dihydro-2H-pyrano[3,2-b]pyridin-4-yl)carbamoyl) nicotinic acid] the same measures were 98% and 33 nM.
Molecule `O=C(O)c1ccc(C(=O)N[C@]2(c3ccc(OC(F)(F)F)cc3)CCOc3cccnc32)nc1` [Example 327, (S)-6-((4-(4-(trifluoro-methoxy)phenyl)-3,4-dihydro-2H-pyrano[3,2-b]pyridin-4-yl)carbamoyl) nicotinic acid] gave an inhibition in vivo at 1 mg/kg in assay [1] of 93%. Also, the IC50 in assay [2] amounted to 23 nM.
As to `Cc1cc(C(=O)N[C@]2(c3ccc(OC(F)(F)F)c(F)c3)CCOc3cccnc32)ccc1C(=O)O` [Example 332, (S)-4-((4-(3-fluoro-4-(trifluoromethoxy)phenyl)-3,4-dihydro-2H-pyrano[3,2-b]pyridin-4-yl)carbamoyl)-2-methylbenzoic acid], testing at 1 mg/kg in assay [1] gave an inhibition in vivo of 99%. Besides, in assay [2], the 50% inhibitory concentration (IC50) worked out at 16 nM.

For orientation: inhibition in vivo means how much of the control response was suppressed. As a reminder, the IC50 is the concentration that inhibits the measured activity by half.
